From ChEMBL document CHEMBL1926605, “Synthesis, structure-activity relationships, and mechanism of action of anti-HIV-1 lamellarin α 20-sulfate analogues” (Bioorg Med Chem, 2011)
Active and inactive are the calls of the source. No cut-off for these calls is given here.

Columns and labels:
[1] = system: HeLa; experiment: Cellular uptake in human HeLa cells expressing CD4 at 100 uM after 24 hrs by confocal laser scanning microscopy analysis; format: ADME, cell-based
[2] = system: HeLa; experiment: Cytotoxicity against human HeLa cells expressing CD4 after 24 hrs by WST-1 assay; format: cell-based
[3] = system: HeLa; experiment: Cytotoxicity against human HeLa cells by MTT assay; format: cell-based
[4] = system: Human immunodeficiency virus 1; experiment: Antiviral activity against HIV1 in COS7 cells expressing HXB2 Env, R8.91, and pTY-EFnLacZ assessed as reduction of viral vector infection into human HeLa cells expressing CD4 at 100 uM after 2 days using 5-bromo-4-chloro-3-indolyl-beta-D-galactopyranoside staining; format: functional, organism-based
[5] = system: Human immunodeficiency virus 1; experiment: Antiviral activity against HIV1 infected in MAGIC5 cells co-cultured with Cos7 cells assessed as inhibition of viral envelope mediated cell-cell fusion at 100 uM after 24 hrs by beta galactosidase assay; format: functional, organism-based; conditions: COS-7
[6] = system: Human immunodeficiency virus 1; experiment: Antiviral activity against LacZ-containing HIV1 in COS7 cells expressing HXB2 Env, R8.91, and pTY-EFnLacZ assessed as reduction of viral vector infection into human HeLa cells expressing CD4 after 2 days using 5-bromo-4-chloro-3-indolyl-beta-D-galactopyranoside staining; format: functional, organism-based; conditions: Human immunodeficiency virus 1, HeLa, 48 h
[7] = system: HeLa; experiment: Cellular uptake in human HeLa cells expressing CD4 at 100 uM after 24 hrs by confocal laser scanning microscopy analysis in presence of methanol; format: ADME, cell-based

For `COc1ccc(-c2c3c4cc(OC)c(OS(=O)(=O)[O-])cc4oc(=O)c3n3ccc4cc(OC)c(OC)cc4c23)cc1O.[Na+]`, the Drug uptake [1] was “Not Active”, the IC50 [2] was greater than 100 µM and the Activity [3] was 274 µM. For the same compound, the Activity [4] was “Active”, the inhibition [5] was “Active” and the IC50 [6] was 13 µM. The Drug uptake [7] was “Active”.
In the case of `COc1cc2ccn3c(c(-c4ccc(OC)c(OS(=O)(=O)[O-])c4)c4c5cc(OC)c(OS(=O)(=O)[O-])cc5oc(=O)c43)c2cc1OC.[Na+].[Na+]`, the Drug uptake [1] is reported as “Not Active”, the IC50 [2] is reported as greater than 100 µM and the Activity [4] is reported as “Active”. For the same compound, the inhibition [5] was “Active”, the IC50 [6] was 15.1 µM and the Drug uptake [7] was “Active”.
For `COc1cc2c(cc1O)oc(=O)c1c2c(-c2ccc(OC)c(OS(=O)(=O)[O-])c2)c2c3cc(OC)c(OC)cc3ccn21.[Na+]`, the Drug uptake [1] was “Not Active”, the IC50 [2] was greater than 100 µM and the Activity [4] was “Active”. The inhibition [5] was “Active”, the IC50 [6] was 14.4 µM and the Drug uptake [7] was “Active”.
In the case of `COc1ccc(-c2cn(CCc3ccc(OC)c(OC)c3)c3c(=O)oc4cc(OS(=O)(=O)O)c(OC)cc4c23)cc1O`, the inhibition [5] is reported as “inactive” and the IC50 [6] is reported as greater than 100 µM.
In the case of `COc1ccc(-c2c3c4cc(OC)c(O)cc4oc(=O)c3n3ccc4cc(OC)c(OC)cc4c23)cc1O`, the Drug uptake [1] is reported as “Active”, the IC50 [6] is reported as greater than 100 µM and the Drug uptake [7] is reported as “Active”.
In the case of `COc1ccc(-c2c3c4cc(OC)c(OS(=O)(=O)[O-])cc4oc(=O)c3n3ccc4cc(OS(=O)(=O)[O-])c(OC)cc4c23)cc1OS(=O)(=O)[O-].[Na+].[Na+].[Na+]`, the Drug uptake [1] is reported as “Not Active”, the IC50 [2] is reported as greater than 100 µM and the Activity [4] is reported as “Active”. For the same compound, the inhibition [5] was “Active”, the IC50 [6] was 20.7 µM and the Drug uptake [7] was “Active”.
For `COc1ccc(-c2c3n(c4c(=O)oc5cc(OS(=O)(=O)[O-])c(OC)cc5c24)CCc2cc(OC)c(OC)cc2-3)cc1O.[Na+]`, the Drug uptake [1] was “Not Active”, the IC50 [2] was greater than 100 µM and the Activity [4] was “Active”. The inhibition [5] was “Active”, the IC50 [6] was 15.3 µM and the Drug uptake [7] was “Active”.
